Several values for one entry are separate records, joined by “and”; a condition that tells them apart may be missing. Equal entries are not always repeated. Where two headings read alike, the source gives them in different places.
What was measured:
PAEC [1] = assay: Determination of intracellular superoxide by DHE, static culture (Example 2); format: cell-based, Porcine; conditions: for % of cells with fluorescent nuclei, hydrogen peroxide exposed sample with inhibitor: 60 μM H2O2; for % of cells with fluorescent nuclei, hydrogen peroxide exposed sample with inhibitor / % cells with fluorescent nuclei, control sample cultured with inhibitor: apocynin 0.25 μM; for % cells with fluorescent nuclei, control sample cultured with inhibitor: no H2O2
Description: Adenoviral-mediated gene transfer was conducted by infection of endothelial cells (85-95% confluence, University of Iowa Cardiovascular Research Center Cell Culture Facility) as previously described (Fang et al., 1998). Ad5CMVSOD2, Ad5CMVeNOS, and Ad5CMVeGFP were acquired from the University of Iowa Gene Transfer Vector Core (REF); Ad5CMVeGFP was used as a negative control. Porcine aortic endothelial cells were incubated with 125 PFU/cell MnSOD/eNOS/eGFP adenovirus in serum-free M199. To improve the efficiency of adenoviral uptake, the adenoviral stock was incubated for 30 minutes prior to addition to cell cultures (Kossila et al., 2002). Infected PAEC were incubated under standard conditions. After 3 hours, the virus-containing solution was removed, samples were washed with serum-free M199, and M199 supplemented with 1% Penicillin-Streptomycin and 2% FBS was added. After 45 hours of incubation (48 hours after initiation of infection) cells were prepared for experimentation.
Incubation continued for an additional 30 minutes with 2 μM dihydroethidium (Miller et al., 1998; Carter et al., 1994) (DHE, Molecular Probes). […] Images were captured using a Zeiss Axiovert S100 fluorescent microscope. Images were collected at a standard exposure of 4500 ms.
Image analysis was conducted with Slidebook 4 Imaging Software (company). Statistical analyses were conducted using the Student's t-Test assuming unequal variance. Values are reported as mean±standard error of the mean (SEM).

PAEC [2] = assay: L-NAME inhibition of eNOS, superoxide by DHE, static; format: cell-based, Porcine
Description: In order to ascertain the role of eNOS in endothelial cell superoxide production, the presence of superoxide was probed in the presence of L-NAME. […] After incubation, 2 μM DHE was added to each sample and incubated for 30 minutes. […] Image analysis was conducted with Slidebook 4 Imaging Software (company). Statistical analyses were conducted using the Student's t-Test assuming unequal variance. Values are reported as mean±standard error of the mean (SEM).

PAEC [3] = format: cell-based, Porcine
Description: An Immunetics cell adhesion chamber (Cambridge, Mass.) was utilized to determine PAEC behavior under shearing conditions. […] PAEC were exposed to a constant flow rate of 24.4 ml/min (2.2 dynes/cm^2) for 1.5 hours. Maintenance of PAEC at 37° C. was achieved by using a fluid reservoir contained in a constant temperature water bath (Precision). Challenged PAEC were exposed to 100 μM H2O2 in serum-free and phenyl red free M199; control PAEC were exposed to serum-free and phenyl red free M199 without H2O2.
After 1 hour of incubation, 2 μM dihydroethidium was added to the media reservoir.
Hydroethidium was used to examine superoxide production of infected and non-infected PAEC under H2O2 induced oxidative stress. PAEC on glass slides were subjected to laminar flow at 24.4 ml/min (2 dynes/cm^2). The circulating fluid contained 2 μM dihydroethidium as a marker for superoxide production.

PAEC [4] = assay: Nitric oxide production (Greiss assay, DAF-FM diacetate staining); format: cell-based, Porcine; conditions: H2O2 exposure, limited length of experimentation
Source text: Nitric oxide production was quantified via Greiss assay and intracellular staining with DAF-FM diacetate.

[5] = test system: Porcine aortic endothelial cells (PAEC); conditions: static
[6] = test system: Porcine aortic endothelial cells (PAEC); conditions: shear 24.4 ml/min (2.2 dynes/cm2), 100 μM H2O2, 1.5 hours
Description: The flow system provided for oscillatory, laminar flow across the sample. […] Due to these factors, an increase in concentration to 100 μM H2O2 was necessary for experimentation under shearing conditions.
An Immunetics flow cell (Li et al., 1996) was prepared by first flushing the fluid path with deionized water and then phenyl red free M199. After flushing, 50 ml of the circulating medium was added and allowed to perfuse for 5 minutes while warming to 37° C. PAEC were then placed in the flow cell and the flow cell was secured to the microscope stage. Endothelial cells were maintained at 37° C. by fluid flow through a water bath (Precision, Winchester, Va.), at a flow rate of 24.4 ml/min (2.2 dynes/cm2), for 1.5 hours under 100 μM H2O2 in circulating medium. The PAEC not exposed to H2O2 were subjected to the same flow rate in serum free and phenyl red free M199 without H2O2. […] The experiment was conducted under constant imaging, with images being captured at 0, 15, 30, 60, and 90 minutes. […] All fluorescent images were acquired with phenyl red free media to eliminate interference of phenyl red and FBS in fluorescent imaging.

PAEC [7] = conditions: 500 μM H2O2, 1 hour
Description: PAEC were cultured and infected as previously described. Forty-eight hours after infection, PAEC were incubated for 1 hour under 500 μM H2O2 in serum-free M199; control groups were incubated in serum-free M199. […] After incubation, 3 μM propidium iodide (PI) was added to each sample and incubated for 8 minutes. Samples were then washed with serum-free M199 and imaged at an exposure of 2500 ms. All fluorescent images were acquired in phenyl-red free media.

PAEC [8] = assay: Determination of eNOS couple state with ascorbic acid, superoxide by DHE, static; format: cell-based, Porcine; conditions: 60 μM H2O2, 1 mM ascorbic acid
Description: In order to ascertain the role of the coupled state of eNOS in endothelial cell superoxide production, the presence of superoxide was probed in the presence of ascorbic acid. […] After incubation, 2 μM DHE was added to each sample and incubated for 30 minutes.

Q: How did the “fold increase in percent of superoxide producing cells, control vs H2O2 stressed” value (PAEC [1]; static culture) turn out when OO [H2O2, hydrogen peroxide] was run?
A: 10 fold

Q: What about the “% of cells having fluorescent nuclei” value (PAEC [1]; static, H2O2 challenged PAEC (60 μM H2O2)) of the same molecule?
A: 51.8±1.1%

Q: What about the “% cells with fluorescent nuclei, challenged non-inhibited group” value (PAEC [2]; 60 μM H2O2, no L-NAME) of the same molecule?
A: 23.8±3.8%

Q: What about the “% of cells with fluorescent nuclei, challenged PAEC (non-infected)” value (PAEC [3]) of the same molecule?
A: 50.3±4.1%

Q: And the “fold increase in percent of superoxide producing cells, non-infected control vs H2O2 stressed” value (PAEC [3])?
A: 30 fold

Q: What about the “NO production (DAF-AM acetate intracellular staining)” value (PAEC [4]) of the same molecule?
A: no significant increases

Q: What about the “% of PAEC exposed to H2O2 demonstrating intracellular superoxide” value ([5]; 3 μM H2O2, 1.5 hour exposure, 2.0 μM DHE) of the same molecule?
A: 1.2±0.2%

Q: What about the “% of PAEC found to produce intracellular superoxide” value ([5]; 30 μM H2O2, 1.5 hour exposure, 2.0 μM DHE) of the same molecule?
A: 77.1±5.5%

Q: And the “% of PAEC exhibiting fluorescent nuclei” value ([5]; 1 mM H2O2)?
A: 76.1±6.8%

Q: And the “cell membrane integrity of PAEC” value ([5]; increasing H2O2 concentration, most notably at 1 mM)?
A: loss in cell membrane integrity in a dose dependant manner

Q: What about the “% of PAEC exposed to H2O2 demonstrating intracellular superoxide” value [6] of the same molecule?
A: 49.5±3.3%

Q: And the “percent of cells with ruptured cellular membranes” value (PAEC [7])?
A: ten

Q: What about the “percent propidium iodide positive cells, challenged PAEC” value (PAEC [7]) of the same molecule?
A: more than ninety

Q: For COC(=O)[C@@H](N)CCCNC(=N)N[N+](=O)[O-] [L-NAME, N^G-nitro-L-arginine methyl ester], which “% cells with fluorescent nuclei, control with eNOS inhibition” value (PAEC [2]; no H2O2, 1 mM L-NAME) is on record?
A: 2.2±0.5% and 2.9±0.3%

Q: What does the source list for Oc1ncnc2[nH]ncc12 [allopurinol]?
A: % of cells with fluorescent nuclei, hydrogen peroxide exposed sample with inhibitor (PAEC [1]; static): 35.6±1.3%; % cells with fluorescent nuclei, control sample cultured with inhibitor (PAEC [1]; static): 4.1±0.4%

Q: COc1cc(C(C)=O)ccc1O [apocynin, Apocynin] was tested. Which “effect on superoxide production” value (PAEC [1]; apocynin 0.5 mM) did it give?
A: minimal effects

Q: What about the “% of cells with fluorescent nuclei, hydrogen peroxide exposed sample with inhibitor” value (PAEC [1]; static) of the same molecule?
A: 35.1±2.0%

Q: And the “% cells with fluorescent nuclei, control sample cultured with inhibitor” value (PAEC [1]; static)?
A: 14.2±1.3%

Q: For O=C1O[C@H]([C@@H](O)CO)C(O)=C1O [ascorbic acid, Ascorbic Acid], which “superoxide production in presence of ascorbic acid” value (PAEC [8]) is on record?
A: almost completely inhibited

Q: With CC(C(=O)O)c1ccc(-c2ccccc2)c(F)c1 (stereo not shown) [flurbiprofen] as the molecule, how does the “% of cells with fluorescent nuclei, hydrogen peroxide exposed sample with inhibitor” value (PAEC [1]; static) read?
A: 46.8±1.4%

Q: And the “% cells with fluorescent nuclei, control sample cultured with inhibitor” value (PAEC [1]; static)?
A: 3.9±0.4%

From patent US20080033040A1, “Methods And Compositions For Screening Involving Endothelial Cells Under Shearing Conditions” (priority 2004, published 2008)
